# Tests used:
# [1] = test system: RKO colon adenocarcinoma cells (RKOp27 induced); experiment: Alamar Blue cell viability assay on RKOp27 cells arrested by Ponasterone A induced p27Kip1 expression (cell cycle specific mode of action); assay type: cell-based; settings: Homo sapiens, cells arrested by ectopic p27Kip1 induced with 10 μM Ponasterone A, 72 hours incubation, read-out: IC50 RKO p27 induced
# Experimental: To determine the cell cycle specific mode of action, subclones of RKO colon adenocarcinoma cells (RKOp27 as described by Schmidt et al. in Oncogene 19, 2423-2429; 2000) are seeded into 96 well flat bottom plates at a density of 16000 cells per well in a volume of 50 μl per well in DMEM growth medium with 10% FCS containing 10 μM Ponasterone A. 24 hours after seeding the 50 μl each of the compound dilutions in DMEM medium are added into each well of the 96-well plate. Each compound dilution is tested as quadruplicates. Wells containing untreated control cells are filled with 50 μl DMEM medium containing 1% DMSO. The cells are then incubated with the substances for 72 hours at 37° C. in a humidified atmosphere containing 5% carbon dioxide. To determine the viability of the cells, 10 μl of an Alamar Blue solution (Biosource) are added and the fluorescence is measured at an extinction of 544 nm and an emission of 590 nm. For the calculation of the cell viability the emission value from untreated cells is set as 100% viability and the emission rates of treated cells are set in relation to the values of untreated cells. Viabilities are expressed as % values. Viability is compared of proliferating cells grown in the absence of the inducer Ponasterone A, versus viability of cells arrested by the expression of ectopic p27Kip1 induced by Ponasterone A.
# Representative IC50 values for anti-proliferation/cytotoxicity determined in the aforementioned assays follow from the following table A, in which the numbers of the compound correspond to the numbers of the examples.
Compound,melting point [°C],IC50 [1] [µM]
"COc1cc(OC)cc([C@@H]2c3[nH]c4cc(C)ccc4c3C[C@H]3C(=O)N(C)C(=S)N23)c1 (racemic) [Compound 8, (3aSR,10RS)-10-(3,5-Dimethoxy-phenyl)-2,7-dimethyl-1-thioxo-1,2,3a,4,9,10-hexahydro-2,9,10a-triaza-cyclopenta[b]fluoren-3-one]",216 to 218,> 100
"COc1cc(OC)cc([C@@H]2c3[nH]c4ccccc4c3C[C@H]3C(=O)N(C)C(=S)N23)c1 [Compound 1, (3aS,10R)-10-(3,5-Dimethoxy-phenyl)-2-methyl-1-thioxo-1,2,3a,4,9,10-hexahydro-2,9,10a-triaza-cyclopenta[b]fluoren-3-one]",,> 100
"CN1C(=O)[C@@H]2Cc3c([nH]c4ccccc34)[C@@H](c3cc(Cl)cc(Cl)c3)N2C1=S [Compound 3, (3aS,10R)-10-(3,5-Dichloro-phenyl)-2-methyl-1-thioxo-1,2,3a,4,9,10-hexahydro-2,9,10a-triaza-cyclopenta[b]fluoren-3-one]",277,> 100
"CN1C(=O)[C@@H]2Cc3c([nH]c4ccccc34)[C@@H](c3cc(F)cc(F)c3)N2C1=S [Compound 4, (3aS,10R)-10-(3,5-Difluoro-phenyl)-2-methyl-1-thioxo-1,2,3a,4,9,10-hexahydro-2,9,10a-triaza-cyclopenta[b]fluoren-3-one]",308 to 310,> 100
"Cc1cc(C)cc([C@@H]2c3[nH]c4ccccc4c3C[C@H]3C(=O)N(C)C(=S)N23)c1 [Compound 5, (3aS,10R)-10-(3,5-Dimethyl-phenyl)-2-methyl-1-thioxo-1,2,3a,4,9,10-hexahydro-2,9,10a-triaza-cyclopenta[b]fluoren-3-one]",252 to 257,> 100

# The next lines start with the values.
melting point [°C],IC50 [1] [µM],Compound
247 to 249,> 85,"COc1cc(OC)cc([C@@H]2c3sc4ccccc4c3C[C@H]3C(=O)N(C)C(=S)N23)c1 (racemic) [Compound 2, (3aSR,10RS)-10-(3,5-Dimethoxy-phenyl)-2-methyl-1-thioxo-1,2,4,10-tetrahydro-3aH-9-thia-2,10a-diaza-cyclopenta[b]fluoren-3-one]"
199 to 202,> 100,"COc1cc(OC)cc([C@@H]2c3[nH]c4cc(F)ccc4c3C[C@H]3C(=O)N(C)C(=S)N23)c1 (racemic) [Compound 6, (3aSR,10RS)-10-(3,5-Dimethoxy-phenyl)-7-fluoro-2-methyl-1-thioxo-1,2,3a,4,9,10-hexahydro-2,9,10a-triaza-cyclopenta[b]fluoren-3-one]"
279 to 291,> 100,"COc1cc(OC)cc([C@@H]2c3[nH]c4cccc(C)c4c3C[C@H]3C(=O)N(C)C(=S)N23)c1 (racemic) [Compound 7, (3aSR,10RS)-10-(3,5-Dimethoxy-phenyl)-2,5-dimethyl-1-thioxo-1,2,3a,4,9,10-hexahydro-2,9,10a-triaza-cyclopenta[b]fluoren-3-one]"

# Source: patent publication US20080125452A1, “Indolopyridines,Benzofuranopyridines and Benzothienopyridines” (ALTANA PHARMA AG, priority 2005, published 2008)
